The text below walks through data of ChEMBL document CHEMBL4393731, “Discovery of fused bicyclic derivatives of 1H-pyrrolo[1,2-c]imidazol-1-one as VDR signaling regulators” (Bioorg Med Chem, 2019).

In series [1] the target is T1, Vitamin D3 receptor (Homo sapiens) (UniProt P11473).
T1 sequence (whole entry): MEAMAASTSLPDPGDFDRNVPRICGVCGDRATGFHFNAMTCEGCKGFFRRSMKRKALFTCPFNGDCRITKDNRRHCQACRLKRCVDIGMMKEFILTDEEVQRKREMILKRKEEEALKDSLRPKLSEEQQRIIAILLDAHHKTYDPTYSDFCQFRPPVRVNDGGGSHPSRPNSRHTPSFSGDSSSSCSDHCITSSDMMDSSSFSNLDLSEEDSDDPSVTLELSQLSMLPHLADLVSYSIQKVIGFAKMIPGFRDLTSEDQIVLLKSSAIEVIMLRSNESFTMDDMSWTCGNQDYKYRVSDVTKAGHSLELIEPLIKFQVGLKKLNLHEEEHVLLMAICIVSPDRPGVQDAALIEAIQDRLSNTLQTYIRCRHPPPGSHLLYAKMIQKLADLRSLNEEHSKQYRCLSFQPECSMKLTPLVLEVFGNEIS
In words: Modulation of VDR in human HeLa cells assessed as increase in calcitriol-induced upregulation of p62 expression at 10 uM measured after 4 hrs by Western blot analysis. It counts as cell-based.

Series [2] concerns HeLa. In words: Induction of autophagy in human HeLa cells transformed with VDR shRNA assessed as increase in LC3-2 to LC3-1 ratio at 10 uM measured after 4 hrs in presence of calcitriol by Western blot analysis. The class given is functional, cell-based. For orientation: A western blot detects proteins with antibodies after separation by electrophoresis.
Series [3] has as its target T1, Vitamin D3 receptor (Homo sapiens). Put plainly: Activation of VDR (unknown origin) expressed in human HeLa cells measured after 24 hrs by luciferase reporter assay. It counts as cell-based. (A reporter such as luciferase makes a cellular process visible.)
Series [4] shares this target. Put plainly: Modulation of VDR (unknown origin) expressed in human HeLa cells assessed as increase in calcitriol-induced response measured after 24 hrs by luciferase reporter assay. It counts as cell-based.
Series [5] concerns HeLa. Put plainly: Induction of autophagy in human HeLa cells transformed with VDR shRNA assessed as up regulation of LC3-1 expression at 10 uM measured after 4 hrs in presence of calcitriol by Western blot analysis. It counts as functional, cell-based.
In series [6] the test system is HeLa. In words: Up regulation of VDR expression in human HeLa cells at 10 uM measured after 4 hrs in presence of VDR shRNA by Western blot analysis. It counts as functional, cell-based.
Series [7] addresses Genome polyprotein (dengue virus type 2) (UniProt P29990). In words: Inhibition of Dengue virus 2 NS2B-NS3 protease.
Series [8] relates to HeLa. Put plainly: Induction of autophagy in human HeLa cells transformed with VDR shRNA assessed as effect on p62 expression at 10 uM measured after 4 hrs in presence of calcitriol by Western blot analysis. The class given is functional, cell-based.
The test system of series [9] is HeLa. Put plainly: Induction of autophagy in human HeLa cells transformed with VDR shRNA assessed as up regulation of LC3-2 expression at 10 uM measured after 4 hrs in presence of calcitriol by western blot analysis. It counts as functional, cell-based.
Series [10] deals with HeLa. In words: Cytotoxicity against human HeLa cells measured after 24 hrs by MTT assay. It counts as cell-based.
Series [11] concerns HeLa. Put plainly: Induction of autophagy in human HeLa cells transformed with VDR shRNA assessed as effect on p62 expression at 10 uM measured after 4 hrs by Western blot analysis. The class given is functional, cell-based.
Series [12] deals with T1, Vitamin D3 receptor (Homo sapiens). Put plainly: Modulation of VDR in human HeLa cells assessed as down regulation of p65 expression at 10 uM measured after 24 hrs in the presence of calcitriol by Western blot analysis. The class given is cell-based.
The target is the same in series [13]. In words: Modulation of VDR in human HeLa cells assessed as increase in calcitriol-induced upregulation of LC3-2 expression at 10 uM measured after 4 hrs by Western blot analysis. The class given is cell-based.
The subject of series [14] is HeLa. Put plainly: Induction of autophagy in human HeLa cells assessed as calcitriol-induced up regulation of LC3-1 expression at 10 uM measured after 4 hrs by Western blot analysis. The class given is functional, cell-based.
For series [15], the target named is T1, Vitamin D3 receptor (Homo sapiens). Put plainly: Activation of VDR in human HeLa cells assessed as up regulation of phosphorylated p65 expression at 10 uM measured after 24 hrs in the presence of calcitriol by Western blot analysis. It counts as cell-based.
Series [16] shares this target. In words: Modulation of VDR (unknown origin) expressed in human HeLa cells assessed as increase in calcitriol-induced response at 10 uM measured after 24 hrs by luciferase reporter assay relative to control. It counts as cell-based.
The target is the same in series [17]. Put plainly: Modulation of VDR in human HeLa cells assessed as increase in calcitriol-induced LC3-2 to LC3-1 ratio at 10 uM measured after 4 hrs by Western blot analysis. The class given is cell-based.

The structures appear in SMILES notation. Activity calls are given as the source filed them. The rule behind the calls is not given here.

Turning to `CSCC[C@H](N)C(=O)Oc1ccc([C@H]2N(c3ccc([N+](=O)[O-])cc3)C(=O)[C@@H]3CCCN32)cc1.Cl`, the outcome (in [1]; with HeLa [2]; in the series with HeLa [5]; with HeLa [6]; in the series with HeLa [9]; in series [12]) was Active. For the same compound, the result (in series [13]; in the series on HeLa [14]; in series [15]; in series [17]) was Active. For the same compound, the outcome (in series [3]; with HeLa [8]; in the series on HeLa [11]) was inactive. Moreover, in [4], the Activity result was “Dose-dependent effect”. In addition, in [7], the “Inhibition (active/not active)” value is “inactive”. This compound also displayed a CC10 in the series on HeLa [10] of more than 10 µM. In addition, in series [16], the fold change (FC) was in the range of 2.5 to 3.
